Three compounds from ChEMBL document CHEMBL3124778, “Structure-based design of new dihydrofolate reductase antibacterial agents: 7-(benzimidazol-1-yl)-2,4-diaminoquinazolines” (J Med Chem, 2014) can be followed below.

For data set [1], the system named is Streptococcus pneumoniae. Briefly: Antibacterial activity against Streptococcus pneumoniae after 18 to 24 hrs by alamar Blue assay. Format: functional.
The nature of data set [2]: Apparent volume of distribution in BALB/c mouse at 5 mg/kg, iv. The data set is classed as ADME, organism-based. On the set-up: dose 5 mg/kg, route intravenous. To be noted: in vivo, read-out: Vz.
Data set [3] in a line: Total clearance in BALB/c mouse at 5 mg/kg, iv. Format: ADME, organism-based. On the set-up: dose 5 mg/kg, route intravenous. The settings on record: in vivo.
A short description of data set [4]: Terminal half life in BALB/c mouse at 5 mg/kg, iv. Format: ADME, organism-based. On the set-up: dose 5 mg/kg, route intravenous. The settings on record: in vivo, read-out: beta t1/2 (converted).
Data set [5] can be described thus: AUClast in BALB/c mouse at 5 mg/kg, iv. Format: ADME, organism-based. On the set-up: dose 5 mg/kg, route intravenous, time 0 - last. The settings on record: plasma.
Data set [6] is described as follows: Plasma concentration in BALB/c mouse at 5 mg/kg, iv measured at 2 mins by LC-MS/MS analysis. Format: ADME, organism-based. The arrangement: dose 5 mg/kg, route intravenous.
For data set [7], the system named is Streptococcus pneumoniae. The experiment in a line: Antibacterial activity against Streptococcus pneumoniae ATCC BAA-255 after 18 to 24 hrs by alamar Blue assay. Format: functional.
The test system of data set [8] is Streptococcus pneumoniae. The experiment in a line: Antibacterial activity against Streptococcus pneumoniae ATCC 700904 after 18 to 24 hrs by alamar Blue assay. The data set is classed as functional.
In data set [9] the test system is Streptococcus pneumoniae. The experiment in a line: Antibacterial activity against Streptococcus pneumoniae ATCC 700676 after 18 to 24 hrs by alamar Blue assay. Format: functional.
Data set [10] deals with Streptococcus pneumoniae. The experiment in a line: Antibacterial activity against Streptococcus pneumoniae ATCC 700677 after 18 to 24 hrs by alamar Blue assay. Format: functional.
Data set [11] relates to Streptococcus pneumoniae. The experiment in a line: Antibacterial activity against Streptococcus pneumoniae ATCC 700675 after 18 to 24 hrs by alamar Blue assay. Format: functional.
Data set [12] deals with Streptococcus pneumoniae. The experiment in a line: Antibacterial activity against Streptococcus pneumoniae ATCC 51916 after 18 to 24 hrs by alamar Blue assay. The data set is classed as functional.
The test system of data set [13] is Streptococcus pneumoniae. Briefly: Antibacterial activity against Streptococcus pneumoniae ATCC 700671 after 18 to 24 hrs by alamar Blue assay. Format: functional.
For data set [14], the system named is Streptococcus pneumoniae. The experiment in a line: Antibacterial activity against Streptococcus pneumoniae ATCC 700669 after 18 to 24 hrs by alamar Blue assay. The data set is classed as functional.
The subject of data set [15] is Streptococcus pneumoniae. The experiment in a line: Antibacterial activity against Streptococcus pneumoniae ATCC 700674 after 18 to 24 hrs by alamar Blue assay. Format: functional.
Data set [16] deals with Streptococcus pneumoniae. The experiment in a line: Antibacterial activity against Streptococcus pneumoniae ATCC 49619 after 18 to 24 hrs by alamar Blue assay. Format: functional.
Data set [17] deals with Staphylococcus aureus. Briefly: Ratio of iclaprim MIC to compound MIC for TMP-resistant Staphylococcus aureus expressing DHFR F99Y mutant. Format: functional.
Data set [18] concerns Staphylococcus aureus. The experiment in a line: Antibacterial activity against TMP-resistant Staphylococcus aureus expressing DHFR F99Y mutant after 18 to 24 hrs by alamar Blue assay. The data set is classed as functional.
Data set [19] relates to Staphylococcus aureus. The experiment in a line: Antibacterial activity against Staphylococcus aureus ATCC 13709 after 18 to 24 hrs by alamar Blue assay in presence of 20% heat inactivated mouse serum. The data set is classed as functional.
Data set [20] has as its system Staphylococcus aureus. Briefly: Antibacterial activity against Staphylococcus aureus ATCC 13709 after 18 to 24 hrs by alamar Blue assay. The data set is classed as functional.
In data set [21] the test system is Staphylococcus aureus. The experiment in a line: animal or person. To be noted: ATCC 13709, in Mus musculus, iv, 24 h, read-out: PD50.
Description: Antibacterial activity against Staphylococcus aureus ATCC 13709 infected in iv dosed BALB/c mouse septicemia model assessed as protection from lethal infection after 24 hrs
Data set [22] concerns the target T1, Dihydrofolate reductase (Homo sapiens, UniProt P00374).
T1 sequence (P00374 whole entry): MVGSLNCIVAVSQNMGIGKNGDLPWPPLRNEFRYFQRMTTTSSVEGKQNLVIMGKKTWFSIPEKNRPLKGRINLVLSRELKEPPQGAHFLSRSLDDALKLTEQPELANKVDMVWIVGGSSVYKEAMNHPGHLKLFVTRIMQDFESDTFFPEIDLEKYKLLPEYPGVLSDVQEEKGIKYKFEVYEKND
Briefly: Inhibition of human DHFR using dihydrofolate as substrate preincubated for 10 mins followed by substrate addition by spectrophotometric analysis in presence of NADPH.

The target of data set [23] is Dihydrofolate reductase (Staphylococcus aureus, UniProt P0A017). The experiment in a line: Inhibition of Staphylococcus aureus DHFR using dihydrofolate as substrate preincubated for 10 mins followed by substrate addition by spectrophotometric analysis in presence of NADPH.
The nature of data set [24]: Selectivity ratio of Ki for human DHFR to Ki for Staphylococcus aureus DHFR.

Values after ≈ are worked out from the molar mass of the structure shown. Where only a bound is given, the exact number is not on record here.

Chain of Dihydrofolate reductase (Staphylococcus aureus, UniProt P0A017) (P0A017 whole entry): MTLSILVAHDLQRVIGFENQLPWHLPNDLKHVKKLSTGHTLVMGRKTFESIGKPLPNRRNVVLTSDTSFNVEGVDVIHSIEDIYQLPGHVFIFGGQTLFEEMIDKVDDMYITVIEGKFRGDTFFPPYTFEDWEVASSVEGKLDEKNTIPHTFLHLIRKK

On to `Cc1cc2nc(-c3nccs3)n(-c3ccc4c(N)nc(N)nc4c3)c2cc1C`, for which, in the data set with Streptococcus pneumoniae [1], the MIC50 was at most 0.5 µg/mL. The compound further showed an MIC90 against Streptococcus pneumoniae [1] of 8 µg/mL (≈ 20.6 µM). The Vd in data set [2] stood at 4.4 L/kg. This compound showed a clearance in data set [3] of 35 mL/min/kg. In data set [4], the half-life was 1.4 h. The compound also gave an AUC(0-t) in data set [5] of 2400 ng·h/mL. Besides, the concentration at 2 min in [6] is 12700 ng/mL. Further, the MIC is at most 0.5 µg/mL against Streptococcus pneumoniae [7]; 4 µg/mL (≈ 10.3 µM) in the data set on Streptococcus pneumoniae [8]; at most 0.5 µg/mL against Streptococcus pneumoniae [9]; at most 0.5 µg/mL against Streptococcus pneumoniae [10]; at most 0.5 µg/mL with Streptococcus pneumoniae [11]; at most 0.5 µg/mL in the data set with Streptococcus pneumoniae [12]. In addition, the MIC in the data set on Streptococcus pneumoniae [13] stood at 32 µg/mL (≈ 82.6 µM); against Streptococcus pneumoniae [14] it was 8 µg/mL (≈ 20.6 µM); with Streptococcus pneumoniae [15], 8 µg/mL (≈ 20.6 µM); against Streptococcus pneumoniae [16] it was 0.25 µg/mL (≈ 0.645 µM); against Staphylococcus aureus [18], 0.25 µg/mL (≈ 0.645 µM); in the data set on Staphylococcus aureus [19], 0.125 µg/mL. The same compound registered an MIC with Staphylococcus aureus [20] of 0.015 µg/mL (≈ 0.0387 µM). Further, the Ratio in the data set with Staphylococcus aureus [17] turned out to be 8. In addition, the ED50 in the data set on Staphylococcus aureus [21] was 2 mg/kg.

In the data set on Streptococcus pneumoniae [1], `Cc1cc2nc(-c3cccs3)n(-c3cc4nc(N)nc(N)c4cc3Cl)c2cc1C` had an MIC50 of 1 µg/mL (≈ 2.38 µM). In the data set on Streptococcus pneumoniae [1], this compound yielded an MIC90 above 64 µg/mL. Also, the MIC in the data set with Streptococcus pneumoniae [7] is at most 0.125 µg/mL; in the data set with Streptococcus pneumoniae [8], 4 µg/mL (≈ 9.5 µM); in the data set on Streptococcus pneumoniae [9], 0.25 µg/mL (≈ 0.594 µM); against Streptococcus pneumoniae [10] it was 0.25 µg/mL (≈ 0.594 µM); against Streptococcus pneumoniae [11] it was 1 µg/mL (≈ 2.38 µM); in the data set on Streptococcus pneumoniae [12], 1 µg/mL (≈ 2.38 µM). In addition, the MIC is above 64 µg/mL against Streptococcus pneumoniae [13]; 2 µg/mL (≈ 4.75 µM) against Streptococcus pneumoniae [14]; above 64 µg/mL against Streptococcus pneumoniae [15]; 0.5 µg/mL (≈ 1.19 µM) in the data set on Streptococcus pneumoniae [16]; 4 µg/mL (≈ 9.5 µM) with Staphylococcus aureus [18]; 1 µg/mL in the data set on Staphylococcus aureus [19]. In the data set on Staphylococcus aureus [20], this compound displayed an MIC of 0.03 µg/mL (≈ 0.0713 µM). Also, the Ki on Dihydrofolate reductase [22] is above 3000 nM; on Dihydrofolate reductase [23], 0.01 nM.

In the data set on Streptococcus pneumoniae [1], `Cc1cc2nc(-c3nccs3)n(-c3cc4nc(N)nc(N)c4cc3Cl)c2cc1C` displayed an MIC50 of at most 0.5 µg/mL. The same compound had an MIC90 in the data set with Streptococcus pneumoniae [1] of 4 µg/mL (≈ 9.48 µM). The minimal inhibitory concentration (MIC) against Streptococcus pneumoniae [7] was at most 0.5 µg/mL; in the data set on Streptococcus pneumoniae [8], 1 µg/mL (≈ 2.37 µM); in the data set with Streptococcus pneumoniae [9], at most 0.5 µg/mL; in the data set with Streptococcus pneumoniae [10] it was at most 0.5 µg/mL; with Streptococcus pneumoniae [11], at most 0.5 µg/mL; in the data set with Streptococcus pneumoniae [12], at most 0.5 µg/mL. For the same compound, the MIC is 4 µg/mL (≈ 9.48 µM) in the data set on Streptococcus pneumoniae [13]; 4 µg/mL (≈ 9.48 µM) against Streptococcus pneumoniae [14]; 4 µg/mL (≈ 9.48 µM) with Streptococcus pneumoniae [15]; 0.125 µg/mL (≈ 0.296 µM) with Streptococcus pneumoniae [16]; 0.25 µg/mL (≈ 0.593 µM) against Staphylococcus aureus [18]; 0.125 µg/mL (≈ 0.296 µM) against Staphylococcus aureus [20]. Besides, the Ratio Ki in data set [24] was determined as 690.
